Measured values published in patent US8546440B2, “Substituted bicyclic imidazole derivatives as gamma secretase modulators” (Janssen Pharmaceuticals, Inc., priority 2008, dated 2013).

Experiments:
[1] = system: Aβ42; test: Screening for γ-secretase-modulating activity, Method 1: Aβ42 sandwich ELISA in supernatant of SKNBE2 cells carrying APP 695 wild type (Tables 12a, 12b); type: cell-based
Description: (§1) Screening was carried out using SKNBE2 cells carrying the APP 695—wild type, grown in Dulbecco's Modified Eagle's Medium/Nutrient mixture F-12 (DMEM/NUT-mix F-12) (HAM) provided by Gibco (cat no. 31330-38) containing 5% Serum/Fe supplemented with 1% non-essential amino acids. Cells were grown to near confluency.
(§2) The screening was performed using the assay as described in Citron et al (1997) Nature Medicine 3: 67. Briefly, cells were plated in a 96-well plate at about 10^5 cells/ml one day prior to addition of compounds. Compounds were added to the cells in Ultraculture (Lonza, BE12-725F) supplemented with 1% glutamine (Invitrogen, 25030-024) for 18 hours. The media were assayed by two sandwich ELISAs, for Aβ42 and Aβtotal. Toxicity of the compounds was assayed by WST-1 cell proliferation reagent (Roche, 1 644 807) according to the manufacturer's protocol.
To quantify the amount of Aβ42 in the cell supernatant, commercially available Enzyme-Linked-Immunosorbent-Assay (ELISA) kits were used (Innotest® β-Amyloid(1-42), Innogenetics N.V., Ghent, Belgium). The Aβ42 ELISA was performed essentially according to the manufacturer's protocol. Briefly, the standards (dilutions of synthetic Aβ1-42) were prepared in polypropylene Eppendorf with final concentrations of 8000 down to 3.9 pg/ml (1/2 dilution step). Samples, standards and blanks (100 μl) were added to the anti-Aβ42-coated plate supplied with the kit (the capture antibody selectively recognizes the C-terminal end of the antigen). The plate was allowed to incubate 3 h at 25° C. in order to allow formation of the antibody-amyloid complex. Following this incubation and subsequent wash steps a selective anti-Aβ-antibody conjugate (biotinylated 3D6) was added and incubated for a minimum of 1 hour in order to allow formation of the antibody-Amyloid-antibody-complex. After incubation and appropriate wash steps, a Streptavidine-Peroxidase-Conjugate was added, followed 30 minutes later by an addition of 3,3′,5,5′-tetramethylbenzidine (TMB)/peroxide mixture, resulting in the conversion of the substrate into a coloured product. This reaction was stopped by the addition of sulfuric acid (0.9 N) and the colour intensity was measured by means of photometry with an ELISA-reader with a 450 nm filter.
(§3) To obtain the values reported in Table 12a, the sigmoidal dose response curves were analysed by computerised curve-fitting, with percent of inhibition plotted against compound concentration. A 4-parameter equation (model 205) in XLfit was used to determine the IC50. The top and the bottom of the curve were fixed to 100 and 0, respectively, and the hill slope was fixed to 1. The IC50 represents the concentration of a compound that is required for inhibiting a biological effect by 50% (Here, it is the concentration where Aβ peptide level is reduced by 50%).
(§4) To obtain the values reported in Table 12b, the data are calculated as percentage of the maximum amount of amyloid Beta 42 measured in the absence of the test compound. The sigmoidal dose response curves were analyzed using non-linear regression analysis with percentage of the control plotted against the log concentration of the compound. A 4-parameter equation was used to determine the IC50. The values reported in Table 12b are averaged IC50 values.

[2] = system: Aβtotal; test: Screening for γ-secretase-modulating activity, Method 1: Aβtotal sandwich ELISA in supernatant of SKNBE2 cells carrying APP 695 wild type (Tables 12a, 12b); type: cell-based
Description: as §1, §2
To quantify the amount of Aβtotal in the cell supernatant, samples and standards were added to a 6E10-coated plate. The plate was allowed to incubate overnight at 4° C. in order to allow formation of the antibody-amyloid complex. Following this incubation and subsequent wash steps a selective anti-Aβ-antibody conjugate (biotinylated 4G8) was added and incubated for a minimum of 1 hour in order to allow formation of the antibody-Amyloid-antibody-complex. After incubation and appropriate wash steps, a Streptavidine-Peroxidase-Conjugate was added, followed 30 minutes later by an addition of Quanta Blu fluorogenic peroxidase substrate according to the manufacturer's instructions (Pierce Corp., Rockford, Ill.).
as §3, §4

[3] = Homo sapiens, Method 1, Table 12a, SKNBE2 cells carrying APP 695 wild type, compounds 18 hours, ELISA, curve top and bottom fixed to 100 and 0, hill slope 1
[4] = Homo sapiens, Table 12b, Method 1, SKNBE2 cells carrying APP 695 wild type, cell supernatant ELISA, averaged IC50 values, percentage of control vs log concentration
[5] = Homo sapiens, Table 12b, Method 1, SKNBE2 cells carrying APP 695 wild type, cell supernatant ELISA, averaged IC50 values
[6] = Table 12b, Method 1, SKNBE2 cells carrying APP 695 wild type, cell supernatant ELISA, averaged IC50 values, percentage of control vs log concentration
[7] = Table 12b, Method 1, SKNBE2 cells carrying APP 695 wild type, cell supernatant ELISA, averaged IC50 values
[8] = Method 1, Table 12a, SKNBE2 cells carrying APP 695 wild type, compounds 18 hours, ELISA, curve top and bottom fixed to 100 and 0, hill slope 1

SMILES	IC50 [1, 3] [nM]	IC50 [1, 4] [nM]	IC50 [2, 3] [µM]	IC50 [2, 5] [µM]	IC50 [1, 6] [nM]	IC50 [2, 7] [µM]	IC50 [1, 8] [nM]	IC50 [2, 8] [µM]
COc1cc(Nc2cccn3c(C(=O)c4ccc(F)cc4)cnc23)ccc1-n1cnc(C)c1 [Compound 62]	477	417	> 10	> 3.02				
Cc1ccc(C(F)(F)F)cc1-c1cn2cccc(Nc3ccc(-n4ncnc4C)cc3)c2n1 [Compound 75]		126		> 3.02				
COc1cc(Nc2cccn3cc(-c4ccc5ncn(C)c5c4)nc23)ccc1-n1cnc(C)c1 [Compound 44]		617		> 3.02				
COc1cc(Nc2cccn3cc(-c4ccccn4)nc23)ccc1-n1cnc(C)c1 [Compound 41]	344	363	8.54	7.41				
Cc1cc(F)ccc1-c1cn2cccc(Nc3ccc(-n4ncnc4C)c(F)c3)c2n1 [Compound 131]		245		> 10				
COc1cc(Nc2cccn3c(Cl)c(CC4CCCCC4)nc23)ccc1-n1cnc(C)c1 [Compound 53]		27		> 3.02				
Cc1ncn(-c2ccc(Nc3cccn4cc(-c5ccc(F)cc5C)nc34)cc2)n1 [Compound 90]		398		> 3.02				
COc1cc(Nc2cccn3cc(C4CC4)nc23)ccc1-n1cnc(C)c1 [Compound 116]		295		> 3.02				
Cc1ncn(-c2ccc(Nc3cccn4cc(-c5ccc(F)cc5C)nc34)cc2F)n1 [Compound 91]		72		18.6				
COc1cc(Nc2cccn3cc(-c4ccc(F)cc4C)nc23)ccc1-n1cnc(C)n1 [Compound 89]		85		> 3.02				
COc1ccc(-c2cn3cccc(Nc4ccc(-n5cnc(C)c5)c(OC)c4)c3n2)c(OC)c1 [Compound 37]	190	174	> 10	> 10				
COc1cc(Nc2cccn3cc(COc4ccc(F)cc4)nc23)ccc1-n1cnc(C)c1 [Compound 28]	20	18	> 1	> 3.02				
COc1cc(Nc2cccn3cc(-c4cccc(C(F)(F)F)c4)nc23)ccc1-n1cnc(C)c1 [Compound 48]	60	52	> 3	> 3.02				
COc1cc(Nc2cccn3ccnc23)ccc1-n1cnc(C)c1 [Compound 49]	305	407	10	> 10				
COc1cc(Nc2nc(Br)cn3cc(-c4ccc(F)cc4C)nc23)ccc1-n1cnc(C)n1 [Compound 177]		234		> 3.02				
COc1cc(Nc2cccn3cc(-c4ccccc4Cl)nc23)ccc1-n1cnc(C)c1 [Compound 14]	57	41	> 3	> 3.02				
COc1cc(Nc2cc(C(F)(F)F)cn3cc(CO)nc23)ccc1-n1cnc(C)n1 [Compound 152]		1780		> 3.02				
C=Cc1cn2cc(C(F)(F)F)cc(Nc3ccc(-n4cnc(C)n4)c(OC)c3)c2n1 [Compound 154]		> 3020		> 3.02				
COc1cc(Nc2cccn3cc(-c4ccc(F)cc4)nc23)ccc1-n1cnc(C)n1 [Compound 6]	239	263	> 10	> 10				
COc1cc(Nc2cccn3cc(-c4ccc(C(F)(F)F)cc4)nc23)ccc1-n1cnc(C)c1 [Compound 30]	57	45	> 3	> 3.02				
COc1cc(Nc2cccn3c(-c4ccccc4-c4ccccc4)cnc23)ccc1-n1cnc(C)c1 [Compound 60]		< 110		> 3.02				

SMILES	IC50 [1, 3] [nM]	IC50 [1, 4] [nM]	IC50 [2, 3] [µM]	IC50 [2, 5] [µM]	IC50 [1, 6] [nM]	IC50 [2, 7] [µM]	IC50 [1, 8] [nM]	IC50 [2, 8] [µM]
CCCCc1cn2cccc(Nc3ccc(-n4cnc(C)n4)cc3)c2n1 [Compound 76]					1950	> 10		
COc1cc(Nc2cccn3cc(-c4ccccc4)nc23)ccc1-n1cnc(C)c1 [Compound 12]	64	55	> 3	> 3.02				
Cc1ncn(-c2ccc(Nc3cccn4cc(-c5cc(C(F)(F)F)ccc5C)nc34)nc2)n1 [Compound 81]					380	> 10		
CCCCc1cn2cccc(Nc3ccc(-n4cnc(C)c4)c(OC)c3)c2n1 [Compound 51]					38	> 3.02	39	> 3
COc1cc(Nc2cccn3cc(-c4ccc(Cl)cc4)nc23)ccc1-n1cnc(C)c1 [Compound 17]	80	71	> 3	> 3.02				
COc1cccc(-c2nc3c(Nc4ccc(-n5cnc(C)c5)cn4)cccn3c2C)c1 [Compound 68]					18	> 3.02	18	> 1
COc1cc(Nc2cccn3cc(C)nc23)ccc1-n1cnc(C)n1 [Compound 77]	2690	4360	> 10	> 10				
Cc1ncn(-c2ccc(Nc3cccn4cc(-c5ccccc5C)nc34)nc2)n1 [Compound 82]					562	> 3.02		
COc1cc(Nc2cccn3cc(-c4cccc(F)c4)nc23)ccc1-n1cnc(C)c1 [Compound 19]	59	56	> 3	> 3.02				
COc1cc(Nc2cccn3c(C#N)c(-c4ccc(F)cc4)nc23)ccc1-n1cnc(C)c1 [Compound 58]		< 110		> 3.02				
COc1cccc(-c2nc3c(Nc4cnc(-n5cnc(C)c5)nc4)cccn3c2C)c1 [Compound 46]					50	> 3.02	52	> 3
CCc1cn2cc(C(F)(F)F)cc(Nc3ccc(-n4cnc(C)n4)c(OC)c3)c2n1 [Compound 153]		1900		> 3.02				
COc1cc(Nc2cccn3cc(-c4ccc(F)cc4F)nc23)ccc1-n1cnc(C)c1 [Compound 25]	251	240	> 10	> 10				
CCc1c(-c2ccc(F)cc2)nc2c(Nc3ccc(-n4cnc(C)c4)c(OC)c3)cccn12 [Compound 23]					22	> 3.02	25	> 3
COc1cc(Nc2cccn3c(Br)c(-c4ccc(F)cc4)nc23)ccc1-n1cnc(C)c1 [Compound 22]	113	112	> 3	> 3.02				
COc1cc(Nc2cccn3cc(-c4cccc(Cl)c4)nc23)ccc1-n1cnc(C)c1 [Compound 16]	58	49	> 3	> 3.02				
COc1cc(Nc2cccn3cc(COC(C)C)nc23)ccc1-n1cnc(C)c1 [Compound 54]	70	68	> 3	> 3.02				
COc1cc(Nc2cccn3c(CNC=O)c(-c4cccc(F)c4)nc23)ccc1-n1cnc(C)c1 [Compound 100]					11	> 3.02		
Cc1ncn(-c2ccc(Nc3cccn4cc(-c5cc(C(F)(F)F)ccc5C)nc34)cn2)n1 [Compound 84]					115	> 3.02		
COc1cccc(-c2nc3c(Nc4ccc(-n5cnc(C)c5)c(F)c4)cccn3c2C)c1 [Compound 66]		76						
